Legend:
HeLa cells = experiment: HeLa cell viability by trypan blue dye exclusion; assay type: cell-based
Description: Since extracellular calcium concentration can influence triptolide binding Applicants sought to determine if the presence of calcium influences the rate of triptolide-mediated apoptosis. To first establish the growth rate of HeLa in media±calcium, cell counts were performed over a 72 hour time course. Although calcium-free media caused cells to detach more easily, the overall growth rates were similar where cell doubling occurred every 24 hours on average (FIG. 3B). For triptolide experiments, cells were initially equilibrated in medium±calcium for 16 hours before the addition of 100 nM triptolide. Cell death was assessed by trypan blue dye exclusion at 24, 48, and 72 hours post drug treatment. In the presence of calcium-containing medium, triptolide induced at least 50% cell death by 24 hours with this trend continuing through later time points (FIG. 3C).
Applicants' results have implicated reversible binding of triptolide to a potential binding protein or complex that can be regulated by calcium. To understand if triptolide function is further separable between cell death and NFκB inhibition, Applicants examined the effect of concentration on these two endpoints. HeLa cells were cultured in the presence of 0, 10, 25, 50, or 100 nM of triptolide and separately assessed for cell death or the ability to suppress NFκB transactivation promoted by TNF-α. Following 24-48 hours of culture, viable cells were recovered and counted. Following 24 hours, triptolide concentrations from 25-100 nM caused greater than 50% of the cells to undergo cell death as assessed by detachment, clumping and the failure to exclude trypan blue dye. […] This is consistent with previous studies showing that low doses of triptolide cause cell cycle arrest rather than apoptosis (Kiviharju, et al., 2002, Clin Cancer Res 8, 2666-2674).
Based upon Applicants' studies examining the concentration dependent effect of triptolide on the two measured biological endpoints, cell death and transcriptional repression, Applicants wanted to determine how modulating triptolide's structure may also discriminate between the two pathways. For cell viability assays, HeLa cells were incubated with 0, 0.1, 1, or 10 μM of each analog or triptolide for 24 hours and then counted using trypan blue dye exclusion. […] NFκB transcriptional inhibition was measured using the κB-luciferase assay as previously described following 5 hours of incubation with each analog (0-10 μM) and TNF-α addition.
HeLa cells were incubated in DMEM or SMEM (Gibco) media+10% FBS and maintained at 37° C. in 5% CO2 for all experiments. HeLa cell viability was assessed by trypan blue dye exclusion, as well as by morphological examination (non-viable cells were rounded and detached from culture plate).

[1] = test system: Pkd1^−/− murine kidney epithelial cells; experiment: Growth, p21 and active caspase-3 in Pkd1^−/− cells; assay type: cell-based
Description: Calcium response to triptolide was, thus, shown to be dependent on polycystin-2. The biological response to calcium flux was next assessed in the murine Pkd1^−/− cell line, by adding 100 nM triptolide to the cultured cells and observing cell growth over time. Within the first 24 hours of culture, a minimal number of detached cells was observed. […] In the absence of triptolide, this cell line underwent a population doubling every 48 hours. […] It is possible that additional signaling pathways are activated by triptolide when Pkd1 is expressed. […] Therefore, Applicants assessed whether the inhibition of proliferation observed was due to p21 re-expression upon triptolide treatment.
The Pkd1^−/−(MN24), Pkd2^+/−(3B3) and Pkd2^−/−(2D2) murine cell lines were derived from knockout and transgenic mice as previously reported (Wu, et al., 1998, Cell, 93:177-88; Wu, et al., 2000, Nat. Genet, 24:75-8; Wu, et al., 2002, Hum Mol Genet, 11:1845-54). The PKD2-Rex cell line was made by stable integration of untagged PKD2 under hygromycin selection. Antibodies used included polycystin-2 (Cai, et al. 1999, J Biol Chem, 274:28557-65), cleaved (active) caspase-3 (Cell Signaling Technology) and p21 (BD Biosciences). Triptolide was obtained from Sinobest Inc. (China) and purity was 99% as determined by HPLC. DMSO was used to dissolve triptolide and was then directly added into culture media for all experiments. Triptolide was tritiated by Sib Tech, Inc. (Newington, Conn.) and resuspended in ethanol to a specific activity of 4-6 Ci/mmol. Purity was >95% as confirmed by RP-HPLC on a Hypersil C18 column and by TLC on both C18 and silica gel.
Total cell lysates (0.5% Triton X-100, 50 mM Tris pH 7.4, 150 mM NaCl, […]) were prepared for Western blot analysis and samples were run out by SDS-PAGE as per manufacturers' protocols. Brightfield images of cells were taken using a 10× or 40× objective. Confocal microscopy (40×) was used for immunofluorescence imaging of polycystin-2.

pregnant C57B1/6 mice = experiment: Toxicity dose finding in pregnant mice; assay type: in vivo; conditions: i.p.
Description: Triptolide has been previously studied in rodent models of tumor regression (Tengchaisri, et al., 1998, Cancer Lett 133, 169-175; Yang, et al., 2003, Mol Cancer Ther 2, 65-72), but it had not yet been tested in a system utilizing pregnant females. To first establish a potential therapeutic versus lethal concentration of drug delivery, pregnant C57B1/6 mice were treated with incremental concentrations of triptolide between 0.01-0.15 mg/kg/day i.p. injections. Toxicity was assessed as determined by resorption of all embryos or the preponderance of a large percentage of stillborns. With reference to these criteria, triptolide toxicity was determined to be most prominent at concentrations of 0.1 mg/kg/day or greater. […] Another experimental parameter involved the timing of the start of triptolide injections, since polycystin-2 has been implicated in left-right axis formation in the developing embryo at approximately E7.75 (McGrath, et al., 2003, Cell 114, 61-73; Pennekamp, et al., 2002, Curr Biol 12, 938-943). Applicants therefore chose E10.5 as the start of triptolide injections, in order to allow for a normal polycystin-2 mediated patterning event and still leave sufficient time to act on cyst formation during kidney organogenesis.

CC(C)[C@]12O[C@H]1[C@@H]1O[C@]13[C@]1(O[C@H]1C[C@H]1C4=C(CC[C@@]13C)C(=O)OC4)[C@@H]2O [triptolide, Triptolide]
cell growth (HeLa cells; 10 nM): efficient at arresting cell growth
cell death (HeLa cells; 0.1 μM, 24 hours, analog study): 60%
cell death (HeLa cells; 0.1 μM, 24 hours, analog study, listed as Triptolide): greater than 50%
cell death (HeLa cells; 100 nM, calcium-containing medium, by 24 hours): at least 50%
cell death at the higher concentrations (HeLa cells; 1 or 10 μM versus 0.1 μM, 24 hours): no significant increase
cell death (HeLa cells; 25-100 nM, 24 hours): greater than 50%
cell death (HeLa cells; 25-100 nM, 48 hours): nearly all cells treated within this concentration range of triptolide died
minimal incubation time required for commitment to apoptosis (HeLa cells; HeLa cells): three to four
active caspase-3 (western blot) ([1]; 100 nM time course): failed to implicate triptolide induced apoptosis
p21 expression (western blot) ([1]; 100 nM, 96 hour time course): upregulated
cell growth ([1]; 100 nM, over 96 hours): growth arrested
dose at which toxicity was most prominent (resorption of embryos, stillborns) (pregnant C57B1/6 mice): ≥ 0.1 mg/kg/day

Reference: patent US20080188449A1, “Treatment of Conditions Caused By Calcium Abnormalities” (priority 2004, published 2008)
